A short description of this series: Solubility (description). The format is physicochemical. The following applies: for solubility in organic solvent: DMSO / DMF.

Molecules are shown by their SMILES.

With `O=c1oc2cc(O)ccc2c2ccc(O)cc12` [3,8-dihydroxy-6H-benzo[c]chromen-6-one], the “solubility in organic solvent” value is reported as “soluble in DMSO” and the solubility in water result is “largely insoluble in water”.
Take `O=c1oc2cc(O)ccc2c2ccccc12` [3-hydroxy-6H-benzo[c]chromen-6-one]: the “solubility in organic solvent” value was “soluble in DMSO and DMF”; the solubility in water result is “largely insoluble in water”.

These data come from patent US20220054575A1, “PROTECTION AGAINST CORONAVIRUS INFECTION BY EXTRACTS AND EXTRACT COMPONENTS” (Natreon, Inc., priority 2020, published 2022).
